Assays:
[1] = test system: dTomato expression in M. trichosporium OB3b; assay: dTomato expression by fluorescence (microplate reader, FACS) in transconjugated M. trichosporium OB3b; assay type: cell-based, Methylosinus trichosporium OB3b; details: pAWP89S-Ptet-dTomato plasmid; aTc induction
Method: For analysis of the expression level by fluorescence, 200 μl was sampled in a 96-well plate and a Tecan microplate reader (excitation: 535 nm, emission: 590 nm) was used. FACS analysis was performed using BD Biosciences FACSCalibur equipment (excitation: 488 nm, emission: 585 nm).
M. trichosporium OB3b transconjugated with the pAWP89S-Ptet-dTomato plasmid was treated with anhydrotetracycline (aTc) at 0 μM, 0.5 μM, 1 μM, or 2 μM, respectively, to induce expression, and the expression of the fluorescent protein dTomato was examined for 8 days. The experiment was performed by the method of Experimental Example 3 above.

[2] = test system: M. capsulatus Bath with the pAWP89S-Po-dTomato plasmid; details: 0.5 mM benzene, 24 hours
Method: It was confirmed whether dTomato could be induced with benzene under sMMO expression conditions (copper-deficient medium).
The M. capsulatus Bath with the pAWP89S-Po-dTomato plasmid were cultured under sMMO expression condition (copper-deficient medium) and pMMO expression condition (copper-containing medium) while supplying 0.5 mM benzene for 24 hours. A strain supplied with 10 μM of phenol was used as a control group.

M. capsulatus Bath [3] = assay: Toxicity test of isoprene and epoxy isoprene (growth assay); assay type: cell-based, Methylococcus capsulatus Bath; details: various concentrations of isoprene, or 1.35 and 13.5 mg/L epoxyisoprene; for growth of the strain expressing sMMO: absence of copper; for growth of the cells expressing pMMO: presence of copper
Method: To analyze the toxicity of isoprene and epoxyisoprene using wild-type strains, 2 mL cultures were transferred to 150 mL serum bottle containing 19 ml NMS medium with or without 10 μM CuCl2. After incubation for 6.5 to 7.5 hours, an appropriate amount of isoprene or epoxy isoprene (2-methyl-2-vinyloxirane) diluted in dodecane was added. The bottle was sealed, 50% of the headspace was replaced with methane, and the bottle was further incubated. Sampling of 1 mL cultures for cell density measurement was performed at appropriate time intervals using a disposable syringe without reopening the bottle.
To examine the potential toxicity of isoprene produced in M. capsulatus Bath, growth assays were performed in the presence of various concentrations of isoprene while regulating the expression of sMMO and pMMO enzymes by controlling the addition of copper.
In addition, in order to examine whether the growth inhibition of the strain was due to the oxidation of isoprene by sMMO, the strain growth was analyzed in the presence of 1.35 and 13.5 mg/L of epoxyisoprene, an oxidation product of isoprene. As a result, it was confirmed that the growth of both the sMMO-expressing strain and the pMMO-expressing strain were reduced depending on the concentration of the epoxy isoprene treated above ((d) and (e) in FIG. 17).

[4] = test system: dTomato expression in M. capsulatus Bath; assay: dTomato expression by fluorescence in transconjugated M. capsulatus Bath; assay type: cell-based, Methylococcus capsulatus Bath; details: pAWP89S-Po-dTomato plasmid; 10 μM phenol
Method: (§1) The transconjugated M. capsulatus Bath and M. trichosporium OB3b were inoculated by 10% in NMS medium containing 25 μg/ml kanamycin and 10 μM CuCl2. For the methanotrophs transconjugated with the pAWP89S-Po-dTomato, 10 μM of phenol was contained in the medium. After sealing, 50% methane gas was substituted in the headspace. The recombinant M. capsulatus Bath was cultured at 37° C. for 24 hours or 44 to 48 hours, and therecombinant M. trichosporium OB3b was cultured at 30° C.

M. capsulatus Bath [5] = details: pAWP89S-Po-dTomato strain; 100 μM phenol compared with 10 μM phenol
Method: as §1

Compound: Cc1c2c(c(O)c3c(O)cccc13)C(=O)[C@]1(O)C(=O)C(C(N)=O)=C(O)[C@@H](N(C)C)[C@@H]1C2 [aTc, anhydrotetracycline]
- FACS distribution of dTomato fluorescence of individual cells [1]: two peaks were formed
- time required for expression to be most active [1]: about 8 days

Compound: c1ccccc1 [benzene]
- dTomato expression (fluorescence value) ([2]; pMMO expression condition (copper-containing medium)): relatively small fluorescence value
- dTomato expression ([2]; sMMO expression condition (copper-deficient medium)): highly induced

Compound: C=CC1(C)CO1 (stereo not shown) [epoxyisoprene, 2-methyl-2-vinyloxirane]
- growth of the strain expressing sMMO (M. capsulatus Bath [3]): reduced
- growth of the cells expressing pMMO (M. capsulatus Bath [3]): reduced

Compound: C=CC(=C)C [isoprene]
- growth of the strain expressing sMMO (M. capsulatus Bath [3]): reduced
- growth of the cells expressing pMMO (M. capsulatus Bath [3]): unaffected

Compound: Oc1ccccc1 [phenol]
- time after phenol supply at which fluorescence due to dTomato expression was observed [4]: 5 h
- strain growth (M. capsulatus Bath [5]): inhibited
